The target in assay [1] is T1, aldose reductase (Bos taurus, UniProt P16116).
T1 construct: partially purified aldose reductase is isolated in known manner from bovine lenses; from tissue; host or cells: bovine lens
In words: In vitro inhibition of partially purified aldose reductase from bovine lenses, spectrophotometric. It is filed as biochemical. The text has this:
Thus, in a standard procedure partially purified aldose reductase is isolated in known manner from bovine lenses. The percentage inhibition of this enzyme's ability in vitro to catalyse the reduction of aldoses to polyhydric alcohols, and particularly to reduce glucose to sorbitol, caused by a test compound can then be determined using standard spectrophotometric methods.

The subject of assay [2] is aldose reductase. In words: Reduction of sciatic nerve sorbitol in streptozotocin-diabetic rats (inhibition of aldose reductase in vivo). Details: species or system rat. The settings on record: after 5 daily oral doses of 3 mg/kg. How it is done:
Rats are made diabetic (as evidenced by severe glucosuria being present) by dosing with streptozotocin. The animals are then dosed daily with the test compound for one, two or five days. The animals are then sacrificed 2-6 hours after the final dose and the eye lenses and/or sciatic nerves are removed. After a standard work-up procedure the residual sorbitol levels in each tissue are determined by gas liquid chromatography after conversion to the polytrimethylsilyl derivatives. Inhibition of aldose reductase in vivo can then be assessed by comparing the residual sorbitol levels in tissues from the dosed diabetic group of rats with those of an undosed group of diabetic rats and an undosed, normal group of rats.
In a variation of the above test diabetic rats are dosed at a fixed daily oral dose for five days and then sacrificed 6 hours aftre the final dose and the reduction of sciatic nerve sorbitol assessed relative to that in control animals.

What is called IC50 is the concentration at which inhibition is half-maximal. Lower therefore signals inhibition by little substance.

`Cc1cc(NC(=O)C(=O)N(C(C)C)C(C)C)cc(C)c1S(=O)(=O)C[N+](=O)[O-]` [Example 2, N,N-di-isopropyl-N'-[3,5-dimethyl-4-(nitromethylsulfonyl)phenyl]oxamide] displayed an IC50 against aldose reductase [1] of roughly 60 nM. In the assay with aldose reductase [2], the “reduction in sciatic nerve sorbitol levels” value worked out at 82%.

The values above are taken from patent US5110808A, “Amide derivatives, compositions and use” (Imperial Chemical Industries, PLC, priority 1990, dated 1992).
